Series [1] concerns Hepatitis C virus. The series is described as follows: Antiviral activity against Hepatitis C virus genotype 1b expressing […] resistant-mutant infected in human HuH7 cells after 72 hrs by FRET assay. It counts as functional, organism-based, Hepacivirus hominis. The conditions noted are these: Huh-7, 72 h.
For series [2], the system named is Hepatitis C virus. Briefly: Antiviral activity against Hepatitis C virus genotype 1a infected in human HuH7 cells after 5 days by ELISA. It counts as functional, organism-based, Hepacivirus hominis. The conditions noted are these: subtype 1a, Huh-7, 120 h. A general note: In an ELISA, binding on a coated surface is turned into a signal by an enzyme label.
A short description of series [3]: AUC (24 hrs) in rat at 5 mg/kg, po. It counts as ADME, organism-based. The arrangement: time < 24 hr, dose 5 mg/kg, route oral. To be noted: plasma.
Series [4] is described as follows: Cytotoxicity against human HuH7 cells infected with HCV genotype 1b after 72 hrs by Alamar blue assay. It counts as cell-based, Huh-7. For orientation: Alamar Blue is a resazurin reagent that responds to reducing activity.
The nature of series [5]: Efflux ratio of permeability from basolateral to apical side over apical to basolateral side in human Caco2 cells. It counts as ADME, cell-based. The conditions noted are these: Caco-2. For orientation: Caco-2 monolayers are a common model of the intestinal barrier.
Series [6] deals with Bovine viral diarrhea virus 1. Briefly: Antiviral activity against Bovine viral diarrhea virus infected in human HuH7 cells by luciferase reporter gene assay. It counts as functional, organism-based. The conditions noted are these: Bovine viral diarrhea virus isolates and strains, Huh-7.
Series [7] is described as follows: AUC (4 hrs) in rat at 5 mg/kg, po. It counts as ADME, organism-based. Also noted: time < 4 hr, dose 5 mg/kg, route oral. To be noted: plasma.
Series [8] concerns Hepatitis C virus. The series is described as follows: Antiviral activity against Hepatitis C virus genotype 1b infected in human HuH7 cells after 72 hrs by FRET assay. It counts as functional, organism-based, Hepacivirus hominis. To be noted: Huh-7, 72 h.
Series [9] in a line: Clearance in rat at 2 mg/kg, iv. Also noted: dose 2 mg/kg, route intravenous. The conditions noted are these: in vivo. The class given is ADME, organism-based.
Series [10] can be described thus: Oral bioavailability in rat at 5 mg/kg. It counts as ADME, organism-based. The conditions noted are these: in vivo.

pEC50: −log10 of the molar value. Where only a bound is given, the exact number is not on record here.

The pEC50 is −log10 of the EC50, conventionally taken in molar units. Higher therefore signals a low EC50. Usually AUC stands for the area under the concentration-time curve, a measure of exposure. Higher therefore signals more exposure. For orientation: CC50 means the concentration at which the toxic effect on the cells reaches its halfway point. The low end stands for harm at low concentration, the high end for better tolerance by the cells. The efflux ratio is the permeability from basolateral to apical divided by that in the opposite direction, in the common usage. Usually clearance stands for a measure of how efficiently the substance is removed, as volume per time. A higher clearance goes with efficient removal. As usually defined, the bioavailability is the share of a dose that reaches the circulation, judged against a reference dose that is usually intravenous.

For the compound `COC(=O)N[C@@H](C(=O)N1CCC[C@H]1c1nc2cc(C#Cc3ccc4[nH]c([C@@H]5CCCN5C(=O)[C@H](NC(=O)OC)c5ccccc5)nc4c3)ccc2[nH]1)c1ccccc1`, the pEC50 with Hepatitis C virus [1] was < 5.48; with Hepatitis C virus [2], 6.97; in series [6], < 5.00; in the series on Hepatitis C virus [8] it was 10.26. Also, the AUC at 24 h in series [3] is 0.539 µM·h. For the same compound, the CC50 at 72 h in [4] is > 10000 nM. Besides, the efflux ratio in [5] is ≥ 7.2. The AUC at 4 h in series [7] came to 0.466 µM·h. Further, the clearance in series [9] was determined as 1.1 mL/min/kg. In [10], the bioavailability was < 1%.

(Values after ChEMBL document CHEMBL3124756, “Hepatitis C virus NS5A replication complex inhibitors. Part 6: Discovery of a novel and highly potent biarylimidazole chemotype with inhibitory activity toward genotypes 1a and 1b replicons” (J Med Chem, 2014).)
